According to patent US8580511B2, “Two-color fluorescent reporter for alternative pre-mRNA splicing” (The Regents of the University of California, priority 2006, dated 2013):

These compounds were tested on exon 10 of the human tau gene (assay: High-throughput small molecule screen with two-color fluorescent (GFP/RFP) splicing reporter in stable cell line). Settings: not given.
Format: cell-based
From the text: Exon 10 of the human tau gene (SEQ ID NO:9; see also, GenBank Accession No. AF027494) containing short stretches (about 50-100 nucleotides) of each of the flanking introns (i.e., intronic sequences from introns 9 and 10; see, e.g., Wang et al., J. Neurochem., 88:1078-1090 (2004)) was cloned into the EcoRI and BamHI restriction sites of the reporter intron (SEQ ID NO:2), which interrupts the start codon of the GFP open reading frame. The clone was linearized using DraIII and transfected into adherent mammalian cells.
In particular, the background was calculated by measuring the fluorescence of each channel after excitation with shorter wavelengths than the optimal for the reporter proteins. This measurement was corrected using data from non-reporter cells before being subtracted from the reporter-expressing cells as background. The following formulas describe the background subtraction procedure: […]
The two-color fluorescent reporter constructs described above carrying exon 10 of the human tau gene were used in high-throughput small molecule screens of a library of enzyme inhibitors (FIG. 6A) and a library of FDA approved drugs (FIG. 6B). The stable cell line was plated at density of 5000 cells per well in 384-well plates. HEK 293 cells to be used as the non-fluorescent control for background subtraction were plated in separate plates at the same density. Each library was applied to the plates and the cells were incubated for 16 hours. The media was removed and the cells were lysed in RIPA buffer (1% Nonidet P-40, 1% sodium deoxycholate, 0.1% SDS, 150 mM NaCl, 10 mM sodium phosphate (pH 7.2), 2 mM EDTA, 50 mM NaF, 5 mM beta-glycerophosphate). The fluorescence intensities were measured using an Analyst AD plate reader. The background was subtracted as described above and the logarithm at base 2 was calculated for the ratio of RFP to GFP fluorescence intensities (log-ratio) and the product of the GFP and RFP fluorescence intensities (log-expression) for each data point. The log-ratios were normalized by Lowess regression using the log-expression as an independent variable.

| Compound | Log-ratio |
| --- | --- |
| CN(C)C(=O)C(CCN1CCC(O)(c2ccc(Cl)cc2)CC1)(c1ccccc1)c1ccccc1 [LOPERAMIDE] | 0.72 |
| N#CC(=C(/N)Sc1ccccc1N)/C(C#N)=C(\N)Sc1ccccc1N [Compound U-0126] | 0.44 |

Same assay, conditions: log2 of RFP/GFP fluorescence, background subtracted, Lowess normalized; enzyme inhibitor library; 16 hours incubation; DMSO control −0.21

| Compound | Log-ratio |
| --- | --- |
| O=S(=O)(c1cccc2c(Cl)cccc12)N1CCCNCC1 [ML-9] | 0.52 |
| C=C(C)[C@H]1O[C@H]2CC[C@@]3(C)[C@@](O)(CC[C@H]4[C@@H]5OC(C)(C)[C@H]6C[C@@H]7C(=C)Cc8c(Cl)cc9[nH]c(c5c9c8[C@@]76O)[C@@]43C)[C@@]23O[C@H]3[C@H]1O [PENITREM A] | 0.56 |
| CC1(C(=O)O)C2CCC(O2)C1(C)C(=O)O (stereo not drawn) [CANTHARIDIC ACID] | −1.72 |
| O=S(=O)(c1cccc2c(I)cccc12)N1CCCNCC1 [ML-7] | 0.72 |
| COc1ccc(S(=O)(=O)N(CCO)c2ccccc2CN(C)C/C=C/c2ccc(Cl)cc2)cc1 [KN-93] | 0.75 |
| Oc1ccc(-c2nc(-c3ccncc3)c(-c3ccc(F)cc3)[nH]2)cc1 [SB-202190] | 0.46 |
| NCCNS(=O)(=O)c1cccc2cnccc12 [Compound H-9] | 0.61 |
| C=C[C@H]1C[N@@]2CC[C@H]1C[C@H]2[C@H](O)c1ccnc2ccc(OC)cc12 [QUININE] | 0.43 |
| COC(=O)C1=C(C)NC(C)=C(C(=O)OCCN(C)Cc2ccccc2)C1c1cccc([N+](=O)[O-])c1 (stereo not drawn) [NICARDIPINE] | 0.68 |
| CCCCC/C=C\C/C=C\C/C=C\CCCCCCC(=O)NCC(=O)O [Dihomo-gamma-linolenoyl glycine] | 0.49 |
| CC(C)COCC(CN(Cc1ccccc1)c1ccccc1)N1CCCC1 (stereo not drawn) [BEPRIDIL] | 0.74 |
| CCCCC/C=C\C/C=C\C/C=C\C/C=C\CCCC(=O)N[C@@H](C)C(=O)O [Arachidonoyl alanine] | 0.38 |
| CCCCCCCCCCCCCCCC(=O)OC(CC(=O)O)C[N+](C)(C)C.[Cl-] (racemic) [PALMITOYL-DL-CARNITINE CI] | 0.61 |
| O=c1cc(N2CCOCC2)oc2c(-c3ccccc3)cccc12 [LY 294002] | 0.85 |
| Cc1cc(O)c2c(=O)c3c(O)cc(O)c4c5c(O)cc(O)c6c(=O)c7c(O)cc(C)c8c1c2c(c34)c(c78)c65 [HYPERICIN] | 1.14 |
| CN(CCc1ccc(Cl)c(Cl)c1)CC(O)COc1ccc(NS(C)(=O)=O)cc1 (stereo not drawn) [AM 92016] | 0.44 |
| N#C/C(=C\c1ccc(O)c(O)c1)C(N)=S [TYRPHOSTIN 47] | 0.48 |
| O=c1[nH]c2ccccc2n1C1CCN(CCCC(c2ccc(F)cc2)c2ccc(F)cc2)CC1 [PIMOZIDE] | 0.69 |
| Nc1ncnc2c1c(I)cn2[C@@H]1O[C@H](CO)[C@@H](O)[C@H]1O [5-IODOTUBERCIDIN] | −1.03 |
| CC(C)(C)c1cc(/C=C(\C#N)C(N)=S)cc(C(C)(C)C)c1O [AG-879] | 1.59 |
| CC(=O)c1c(O)c(C)c(O)c(Cc2c(O)c3c(c(C(=O)/C=C/c4ccccc4)c2O)OC(C)(C)C=C3)c1O [ROTTLERIN] | 1.27 |
| CCCCc1oc2ccccc2c1C(=O)c1cc(I)c(OCCN(CC)CC)c(I)c1 [AMIODARONE] | 0.63 |
| N/C(=N\C(=O)c1nc(Cl)c(N)nc1N)NCc1ccc(Cl)c(Cl)c1 [DICHLOROBENZAMIL] | 1.75 |
| CC(C)(C)c1cc(C=C(C#N)C#N)cc(C(C)(C)C)c1O [TYRPHOSTIN 9] | 1.69 |
| COC[C@H]1OC(=O)c2coc3c2[C@@]1(C)C1=C(C3=O)[C@@H]2CCC(=O)[C@@]2(C)C[C@H]1OC(C)=O [WORTMANNIN] | 1.37 |
